# Measurements: the supplement of paper PMC10307832
# Columns and labels:
# Test in all cases: relative viability (nuclei count vs DMSO), 5 days (fraction); higher = more cells survive
# [1] = system: SW 1573
# How it was run: (§1)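 Values are medians from duplicate plates. Each reflects relative viability, defined as the nuclei count of treated wells over that of vehicle wells. Lung cancer cell lines in 1536-well plates were pin-tool dosed one day after seeding with one drug alone or with a fixed anchor-drug dose plus five library-drug doses (not always all listed) in √10 steps, then fixed, stained and imaged at 4× after 5 days.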
# [2] = system: LU99A
# How it was run: as §1
# [3] = system: RERF-LC-KJ
# How it was run: as §1
# [4] = system: HCC-78
# How it was run: as §1
# [5] = system: SW 900
# How it was run: as §1
# [6] = system: NCI-H2342
# How it was run: as §1
# [7] = system: EPLC-272H
# How it was run: as §1
# [8] = system: NCI-H1666
# How it was run: as §1
# [9] = system: HCC-827
# How it was run: as §1
# [10] = system: NCI-H23
# How it was run: as §1
# [11] = system: EMC-BAC-2
# How it was run: as §1
# [12] = system: NCI-H1563
# How it was run: as §1
# [13] = system: LXF-289
# How it was run: as §1
# [14] = system: ChaGo-K-1
# How it was run: as §1
# [15] = system: LCLC-103H
# How it was run: as §1
# [16] = system: PC-14
# How it was run: as §1
# [17] = system: NCI-H1975
# How it was run: as §1
# [18] = system: LK-2
# How it was run: as §1
# [19] = system: SK-LU-1
# How it was run: as §1
# [20] = system: EKVX
# How it was run: as §1
# [21] = system: NCI-H322M
# How it was run: as §1
# [22] = system: NCI-H2126
# How it was run: as §1
# [23] = system: NCI-H2405
# How it was run: as §1
structure (smiles),measurement,setting,value
O=c1cc(N2CCOCC2)oc2c(-c3cccc4c3sc3ccccc34)cccc12 + Nc1nc2[nH]cc(CCc3ccc(C(=O)N[C@@H](CCC(=O)O)C(=O)O)cc3)c2c(=O)[nH]1 [Pemetrexed] (partner 0.2 µM),relative viability,[1]; first compound 0.01 µM,0.847
same,relative viability,[1]; first compound 0.03162 µM,0.937
same,relative viability,[1]; first compound 0.1 µM,0.824
same,relative viability,[1]; first compound 0.3162 µM,0.857
same,relative viability,[1]; first compound 1 µM,0.778
same,relative viability,[2]; first compound 0.01 µM,0.177
same,relative viability,[2]; first compound 0.03162 µM,0.195
same,relative viability,[2]; first compound 0.1 µM,0.139
same,relative viability,[2]; first compound 0.3162 µM,0.19
same,relative viability,[2]; first compound 1 µM,0.176
same,relative viability,[3]; first compound 0.01 µM,0.474
same,relative viability,[3]; first compound 0.03162 µM,0.478
same,relative viability,[3]; first compound 0.1 µM,0.492
same,relative viability,[3]; first compound 0.3162 µM,0.489
same,relative viability,[3]; first compound 1 µM,0.423
same,relative viability,[4]; first compound 0.01 µM,0.897
same,relative viability,[4]; first compound 0.03162 µM,0.886
same,relative viability,[4]; first compound 0.1 µM,0.933
same,relative viability,[4]; first compound 0.3162 µM,0.877
same,relative viability,[4]; first compound 1 µM,0.979
same,relative viability,[5]; first compound 0.03162 µM,0.452
same,relative viability,[5]; first compound 0.1 µM,0.425
same,relative viability,[5]; first compound 0.3162 µM,0.51
same,relative viability,[5]; first compound 1 µM,0.507
same,relative viability,[6]; first compound 0.01 µM,0.795
same,relative viability,[6]; first compound 0.03162 µM,0.753
same,relative viability,[6]; first compound 0.1 µM,0.772
same,relative viability,[6]; first compound 0.3162 µM,0.755
same,relative viability,[6]; first compound 1 µM,0.784
same,relative viability,[7]; first compound 0.01 µM,0.344
same,relative viability,[7]; first compound 0.03162 µM,0.361
same,relative viability,[7]; first compound 0.1 µM,0.334
same,relative viability,[7]; first compound 0.3162 µM,0.368
same,relative viability,[7]; first compound 1 µM,0.442
same,relative viability,[8]; first compound 0.01 µM,0.944
same,relative viability,[8]; first compound 0.03162 µM,0.912
same,relative viability,[8]; first compound 0.1 µM,0.896
same,relative viability,[8]; first compound 0.3162 µM,0.779
same,relative viability,[8]; first compound 1 µM,0.82
same,relative viability,[9]; first compound 0.01 µM,0.264
same,relative viability,[9]; first compound 0.03162 µM,0.254
same,relative viability,[9]; first compound 0.1 µM,0.295
same,relative viability,[9]; first compound 0.3162 µM,0.271
same,relative viability,[9]; first compound 1 µM,0.3
same,relative viability,[10]; first compound 0.01 µM,0.732
same,relative viability,[10]; first compound 0.03162 µM,0.761
same,relative viability,[10]; first compound 0.3162 µM,0.659
same,relative viability,[10]; first compound 1 µM,0.609
same,relative viability,[11]; first compound 0.01 µM,0.459
same,relative viability,[11]; first compound 0.03162 µM,0.43
same,relative viability,[11]; first compound 0.1 µM,0.457
same,relative viability,[11]; first compound 0.3162 µM,0.477
same,relative viability,[11]; first compound 1 µM,0.456
same,relative viability,[12]; first compound 0.01 µM,0.863
same,relative viability,[12]; first compound 0.03162 µM,0.778
same,relative viability,[12]; first compound 0.1 µM,0.761
same,relative viability,[12]; first compound 0.3162 µM,0.767
same,relative viability,[12]; first compound 1 µM,0.641
same,relative viability,[13]; first compound 0.01 µM,0.879
same,relative viability,[13]; first compound 0.03162 µM,0.925
same,relative viability,[13]; first compound 0.1 µM,0.913
same,relative viability,[13]; first compound 0.3162 µM,0.864
same,relative viability,[13]; first compound 1 µM,0.963
same,relative viability,[14]; first compound 0.01 µM,0.267
same,relative viability,[14]; first compound 0.03162 µM,0.249
same,relative viability,[14]; first compound 0.1 µM,0.247
same,relative viability,[14]; first compound 0.3162 µM,0.259
same,relative viability,[14]; first compound 1 µM,0.286
same,relative viability,[15]; first compound 0.01 µM,0.44
same,relative viability,[15]; first compound 0.03162 µM,0.503
same,relative viability,[15]; first compound 0.1 µM,0.485
same,relative viability,[15]; first compound 0.3162 µM,0.465
same,relative viability,[15]; first compound 1 µM,0.457
same,relative viability,[16]; first compound 0.01 µM,0.133
same,relative viability,[16]; first compound 0.03162 µM,0.153
same,relative viability,[16]; first compound 0.1 µM,0.131
same,relative viability,[16]; first compound 0.3162 µM,0.114
same,relative viability,[16]; first compound 1 µM,0.132
same,relative viability,[17]; first compound 0.01 µM,0.309
same,relative viability,[17]; first compound 0.03162 µM,0.27
same,relative viability,[17]; first compound 0.1 µM,0.294
same,relative viability,[17]; first compound 0.3162 µM,0.267
same,relative viability,[17]; first compound 1 µM,0.309
same,relative viability,[18]; first compound 0.01 µM,0.278
same,relative viability,[18]; first compound 0.03162 µM,0.238
same,relative viability,[18]; first compound 0.1 µM,0.296
same,relative viability,[18]; first compound 0.3162 µM,0.238
same,relative viability,[18]; first compound 1 µM,0.275
same,relative viability,[19]; first compound 0.01 µM,0.963
same,relative viability,[19]; first compound 0.03162 µM,0.975
same,relative viability,[19]; first compound 0.1 µM,1.02
same,relative viability,[19]; first compound 0.3162 µM,1
same,relative viability,[19]; first compound 1 µM,0.953
same,relative viability,[20]; first compound 0.01 µM,0.41
same,relative viability,[20]; first compound 0.03162 µM,0.384
same,relative viability,[20]; first compound 0.1 µM,0.419
same,relative viability,[20]; first compound 0.3162 µM,0.365
same,relative viability,[20]; first compound 1 µM,0.362
same,relative viability,[21]; first compound 0.01 µM,0.611
same,relative viability,[21]; first compound 0.03162 µM,0.613
same,relative viability,[21]; first compound 0.3162 µM,0.617
same,relative viability,[21]; first compound 1 µM,0.61
same,relative viability,[22]; first compound 0.01 µM,0.713
same,relative viability,[22]; first compound 0.03162 µM,0.72
same,relative viability,[22]; first compound 0.1 µM,0.636
same,relative viability,[22]; first compound 0.3162 µM,0.668
same,relative viability,[22]; first compound 1 µM,0.674
same,relative viability,[23]; first compound 0.01 µM,1.02
same,relative viability,[23]; first compound 0.03162 µM,1.18
same,relative viability,[23]; first compound 0.1 µM,0.943
same,relative viability,[23]; first compound 0.3162 µM,1.11
same,relative viability,[23]; first compound 1 µM,1.09
